This note sets out measurements from patent US20240246942A1, “KINASE INHIBITORS FOR THE TREATMENT OF NEURODEGENERATIVE DISEASES” (priority 2020, published 2024).

What all share (experiment): biochemical
The target in assay [1] is T1, panel of 374 wild-type kinases (Homo sapiens, UniProt Q15569).
T1 construct: purchased Reaction Biology Corporation
Conditions: read-out: % Enzyme Activity (relative to DMSO controls), kinase TESK1.

For assay [2], the target named is T2, panel of 374 wild-type kinases (Homo sapiens, UniProt Q96GX5).
T2 construct: purchased Reaction Biology Corporation
T2 sequence (Q96GX5 1-879): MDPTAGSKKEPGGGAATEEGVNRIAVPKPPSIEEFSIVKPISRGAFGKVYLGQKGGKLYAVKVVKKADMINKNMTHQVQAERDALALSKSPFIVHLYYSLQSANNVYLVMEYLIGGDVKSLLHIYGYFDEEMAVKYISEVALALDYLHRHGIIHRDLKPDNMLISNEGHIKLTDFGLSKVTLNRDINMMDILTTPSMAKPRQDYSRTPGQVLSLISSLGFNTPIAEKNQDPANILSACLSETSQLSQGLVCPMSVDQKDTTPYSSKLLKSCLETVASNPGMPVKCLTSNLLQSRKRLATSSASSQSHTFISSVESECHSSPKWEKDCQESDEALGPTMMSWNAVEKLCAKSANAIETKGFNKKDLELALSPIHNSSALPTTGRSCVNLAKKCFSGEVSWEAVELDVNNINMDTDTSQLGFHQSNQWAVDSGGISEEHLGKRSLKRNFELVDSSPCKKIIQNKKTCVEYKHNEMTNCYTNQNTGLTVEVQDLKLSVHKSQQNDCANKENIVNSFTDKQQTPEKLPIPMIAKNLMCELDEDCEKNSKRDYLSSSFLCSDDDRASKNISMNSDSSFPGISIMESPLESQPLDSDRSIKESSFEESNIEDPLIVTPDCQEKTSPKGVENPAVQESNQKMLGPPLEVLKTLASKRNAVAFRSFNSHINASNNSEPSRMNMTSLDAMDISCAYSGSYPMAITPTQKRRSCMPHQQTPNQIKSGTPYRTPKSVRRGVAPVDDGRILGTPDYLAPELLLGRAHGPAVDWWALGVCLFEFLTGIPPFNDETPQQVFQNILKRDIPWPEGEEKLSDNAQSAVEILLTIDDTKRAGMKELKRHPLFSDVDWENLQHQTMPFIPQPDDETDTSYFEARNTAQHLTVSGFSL
The conditions noted are these: MASTL, read-out: % Enzyme Activity (relative to DMSO controls).

The target in assay [3] is T3, panel of 374 wild-type kinases (Homo sapiens, UniProt P27448).
T3 construct: purchased Reaction Biology Corporation
The conditions noted are these: read-out: % Enzyme Activity (relative to DMSO controls), MARK3.

Assay [4] concerns the target T4, panel of 374 wild-type kinases (Homo sapiens, UniProt Q15418).
T4 construct: purchased Reaction Biology Corporation
The conditions noted are these: read-out: % Enzyme Activity (relative to DMSO controls), kinase RSK1.

The target in assay [5] is T5, panel of 374 wild-type kinases (Homo sapiens, UniProt P49336).
T5 construct: purchased Reaction Biology Corporation
Conditions: read-out: % Enzyme Activity (relative to DMSO controls), CDK8/cyclin C.

Assay [6] deals with T6, panel of 374 wild-type kinases (Homo sapiens, UniProt P31749).
T6 construct: purchased Reaction Biology Corporation
Conditions: read-out: % Enzyme Activity (relative to DMSO controls), AKT1.

For assay [7], the target named is T7, panel of 374 wild-type kinases (Homo sapiens, UniProt Q9Y2H1).
T7 construct: purchased Reaction Biology Corporation
Conditions: read-out: % Enzyme Activity (relative to DMSO controls), kinase STK38L/NDR2.

In assay [8] the target is T8, panel of 374 wild-type kinases (Homo sapiens, UniProt Q9H2X6).
T8 construct: purchased Reaction Biology Corporation
The conditions noted are these: read-out: % Enzyme Activity (relative to DMSO controls), HIPK2.

Assay [9] addresses T9, panel of 374 wild-type kinases (Homo sapiens, UniProt Q13555).
T9 construct: purchased Reaction Biology Corporation
Conditions: read-out: % Enzyme Activity (relative to DMSO controls), CAMK2g.

Assay [10] deals with T10, panel of 374 wild-type kinases (Homo sapiens, UniProt P36896).
T10 construct: purchased Reaction Biology Corporation
T10 sequence (P36896 24-505): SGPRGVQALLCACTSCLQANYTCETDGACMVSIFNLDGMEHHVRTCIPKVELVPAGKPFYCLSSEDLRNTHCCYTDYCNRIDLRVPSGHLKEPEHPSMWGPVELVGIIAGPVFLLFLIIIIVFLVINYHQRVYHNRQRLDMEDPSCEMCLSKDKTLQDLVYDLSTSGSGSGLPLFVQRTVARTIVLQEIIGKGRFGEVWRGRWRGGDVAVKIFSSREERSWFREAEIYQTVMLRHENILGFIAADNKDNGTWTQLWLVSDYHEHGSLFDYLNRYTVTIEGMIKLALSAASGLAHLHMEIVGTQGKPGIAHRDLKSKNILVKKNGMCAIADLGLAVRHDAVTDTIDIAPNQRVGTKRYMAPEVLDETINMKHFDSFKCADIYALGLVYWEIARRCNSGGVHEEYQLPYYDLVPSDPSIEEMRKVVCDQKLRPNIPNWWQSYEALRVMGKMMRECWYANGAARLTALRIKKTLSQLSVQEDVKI
The conditions noted are these: read-out: % Enzyme Activity (relative to DMSO controls), ALK4/ACVR1B.

The target in assay [11] is T11, panel of 374 wild-type kinases (Homo sapiens, UniProt Q09013).
T11 construct: purchased Reaction Biology Corporation
T11 sequence (Q09013 1-629): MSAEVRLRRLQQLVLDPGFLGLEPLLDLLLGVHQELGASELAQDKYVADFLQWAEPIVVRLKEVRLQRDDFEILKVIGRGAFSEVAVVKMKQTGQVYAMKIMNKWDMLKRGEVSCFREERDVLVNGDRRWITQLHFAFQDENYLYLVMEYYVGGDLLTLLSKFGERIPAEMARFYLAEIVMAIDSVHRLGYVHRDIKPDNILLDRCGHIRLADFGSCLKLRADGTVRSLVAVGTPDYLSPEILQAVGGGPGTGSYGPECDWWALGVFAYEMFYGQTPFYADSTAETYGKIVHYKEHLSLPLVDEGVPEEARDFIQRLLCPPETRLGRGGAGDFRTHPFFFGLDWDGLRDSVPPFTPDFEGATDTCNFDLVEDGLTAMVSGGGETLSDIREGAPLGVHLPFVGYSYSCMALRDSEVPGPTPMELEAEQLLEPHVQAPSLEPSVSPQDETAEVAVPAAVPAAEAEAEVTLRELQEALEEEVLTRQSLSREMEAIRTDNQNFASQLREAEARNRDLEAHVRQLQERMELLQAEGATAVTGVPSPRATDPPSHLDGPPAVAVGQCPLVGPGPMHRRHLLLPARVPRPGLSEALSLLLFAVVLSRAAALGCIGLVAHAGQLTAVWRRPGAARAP
Conditions: read-out: % Enzyme Activity (relative to DMSO controls), DMPK.

T9 sequence (Q13555 whole entry): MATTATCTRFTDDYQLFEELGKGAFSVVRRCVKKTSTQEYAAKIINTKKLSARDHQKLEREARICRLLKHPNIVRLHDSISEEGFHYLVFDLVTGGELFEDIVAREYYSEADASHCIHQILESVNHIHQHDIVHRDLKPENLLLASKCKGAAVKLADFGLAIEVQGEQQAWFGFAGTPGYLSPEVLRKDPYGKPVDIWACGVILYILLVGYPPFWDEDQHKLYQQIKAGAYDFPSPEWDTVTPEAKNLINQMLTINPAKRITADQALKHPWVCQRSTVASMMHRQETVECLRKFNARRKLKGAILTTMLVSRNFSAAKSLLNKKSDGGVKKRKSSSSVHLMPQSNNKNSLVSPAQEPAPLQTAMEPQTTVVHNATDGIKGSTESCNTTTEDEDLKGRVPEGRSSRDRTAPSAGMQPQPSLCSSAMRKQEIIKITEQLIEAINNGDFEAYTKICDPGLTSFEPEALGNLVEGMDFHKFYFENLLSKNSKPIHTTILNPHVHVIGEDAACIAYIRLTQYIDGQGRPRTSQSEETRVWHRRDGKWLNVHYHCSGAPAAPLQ
T8 sequence (Q9H2X6 whole entry): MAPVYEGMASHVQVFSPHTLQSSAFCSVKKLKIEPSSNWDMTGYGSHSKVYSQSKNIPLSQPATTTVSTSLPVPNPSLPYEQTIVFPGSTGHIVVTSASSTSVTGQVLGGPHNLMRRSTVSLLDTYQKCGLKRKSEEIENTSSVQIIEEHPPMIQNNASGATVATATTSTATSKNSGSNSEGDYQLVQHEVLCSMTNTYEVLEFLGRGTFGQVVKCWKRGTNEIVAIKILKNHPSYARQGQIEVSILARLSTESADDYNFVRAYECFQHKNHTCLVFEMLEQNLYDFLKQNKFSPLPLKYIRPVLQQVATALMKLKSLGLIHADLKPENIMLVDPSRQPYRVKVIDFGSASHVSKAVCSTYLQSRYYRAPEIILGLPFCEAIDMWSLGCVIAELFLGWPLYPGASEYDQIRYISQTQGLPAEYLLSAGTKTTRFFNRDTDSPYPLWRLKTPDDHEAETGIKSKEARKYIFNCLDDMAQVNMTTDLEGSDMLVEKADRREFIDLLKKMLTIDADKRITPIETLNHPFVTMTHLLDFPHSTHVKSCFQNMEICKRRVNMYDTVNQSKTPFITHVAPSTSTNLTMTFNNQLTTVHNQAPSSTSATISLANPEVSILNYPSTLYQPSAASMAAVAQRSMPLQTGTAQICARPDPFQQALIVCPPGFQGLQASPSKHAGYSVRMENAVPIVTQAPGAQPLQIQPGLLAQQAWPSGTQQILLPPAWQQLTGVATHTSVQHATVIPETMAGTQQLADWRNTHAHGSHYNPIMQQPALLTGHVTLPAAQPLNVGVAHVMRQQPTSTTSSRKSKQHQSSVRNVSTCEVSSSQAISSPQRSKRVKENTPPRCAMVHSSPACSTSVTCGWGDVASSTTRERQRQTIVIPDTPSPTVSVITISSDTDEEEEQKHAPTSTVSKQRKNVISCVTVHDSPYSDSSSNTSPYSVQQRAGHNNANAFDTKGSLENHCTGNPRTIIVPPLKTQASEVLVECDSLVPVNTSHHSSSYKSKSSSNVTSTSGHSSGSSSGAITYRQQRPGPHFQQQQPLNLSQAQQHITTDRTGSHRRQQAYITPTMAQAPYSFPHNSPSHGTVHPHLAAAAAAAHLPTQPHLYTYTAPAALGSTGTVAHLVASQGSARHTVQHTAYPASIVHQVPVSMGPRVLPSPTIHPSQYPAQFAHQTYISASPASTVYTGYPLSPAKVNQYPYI
T4 sequence (Q15418 whole entry): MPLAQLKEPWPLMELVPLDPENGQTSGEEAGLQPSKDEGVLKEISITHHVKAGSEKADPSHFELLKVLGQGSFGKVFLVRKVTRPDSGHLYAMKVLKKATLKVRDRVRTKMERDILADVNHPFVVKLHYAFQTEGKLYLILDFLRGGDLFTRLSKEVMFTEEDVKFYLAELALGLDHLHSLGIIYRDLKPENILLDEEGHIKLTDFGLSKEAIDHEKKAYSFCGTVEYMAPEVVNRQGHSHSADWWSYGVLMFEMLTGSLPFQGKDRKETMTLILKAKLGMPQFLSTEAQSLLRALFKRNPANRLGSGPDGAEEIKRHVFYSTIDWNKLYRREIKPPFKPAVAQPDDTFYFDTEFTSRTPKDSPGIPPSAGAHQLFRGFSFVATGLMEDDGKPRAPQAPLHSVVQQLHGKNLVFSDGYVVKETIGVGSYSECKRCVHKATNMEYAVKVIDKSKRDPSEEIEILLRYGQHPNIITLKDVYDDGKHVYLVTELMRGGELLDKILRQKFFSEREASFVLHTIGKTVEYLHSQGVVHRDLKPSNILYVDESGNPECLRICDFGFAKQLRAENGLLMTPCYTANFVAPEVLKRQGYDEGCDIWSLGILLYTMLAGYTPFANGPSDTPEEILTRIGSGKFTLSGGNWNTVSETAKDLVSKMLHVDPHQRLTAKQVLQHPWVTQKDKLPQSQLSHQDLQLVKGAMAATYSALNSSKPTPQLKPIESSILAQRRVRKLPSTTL
T3 sequence (P27448 whole entry): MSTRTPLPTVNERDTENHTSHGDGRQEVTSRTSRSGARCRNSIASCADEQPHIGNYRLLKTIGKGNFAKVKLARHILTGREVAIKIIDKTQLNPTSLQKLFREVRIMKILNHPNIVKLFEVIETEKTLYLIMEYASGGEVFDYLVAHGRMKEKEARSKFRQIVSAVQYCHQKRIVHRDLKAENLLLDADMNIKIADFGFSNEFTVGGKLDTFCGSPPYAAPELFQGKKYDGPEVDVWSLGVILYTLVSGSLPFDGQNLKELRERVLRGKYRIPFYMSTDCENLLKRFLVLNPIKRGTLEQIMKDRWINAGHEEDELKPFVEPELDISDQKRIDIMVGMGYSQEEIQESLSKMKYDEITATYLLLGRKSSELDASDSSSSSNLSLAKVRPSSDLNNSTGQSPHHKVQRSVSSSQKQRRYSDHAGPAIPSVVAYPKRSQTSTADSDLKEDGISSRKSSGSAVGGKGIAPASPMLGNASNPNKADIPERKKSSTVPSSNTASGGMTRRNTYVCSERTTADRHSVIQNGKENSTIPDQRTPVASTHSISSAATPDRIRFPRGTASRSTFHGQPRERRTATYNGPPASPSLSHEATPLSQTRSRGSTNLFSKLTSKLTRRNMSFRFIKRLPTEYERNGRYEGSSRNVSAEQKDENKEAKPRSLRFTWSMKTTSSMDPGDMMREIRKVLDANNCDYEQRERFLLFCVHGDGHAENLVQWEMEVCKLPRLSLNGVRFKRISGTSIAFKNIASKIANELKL
T5 sequence (P49336 whole entry): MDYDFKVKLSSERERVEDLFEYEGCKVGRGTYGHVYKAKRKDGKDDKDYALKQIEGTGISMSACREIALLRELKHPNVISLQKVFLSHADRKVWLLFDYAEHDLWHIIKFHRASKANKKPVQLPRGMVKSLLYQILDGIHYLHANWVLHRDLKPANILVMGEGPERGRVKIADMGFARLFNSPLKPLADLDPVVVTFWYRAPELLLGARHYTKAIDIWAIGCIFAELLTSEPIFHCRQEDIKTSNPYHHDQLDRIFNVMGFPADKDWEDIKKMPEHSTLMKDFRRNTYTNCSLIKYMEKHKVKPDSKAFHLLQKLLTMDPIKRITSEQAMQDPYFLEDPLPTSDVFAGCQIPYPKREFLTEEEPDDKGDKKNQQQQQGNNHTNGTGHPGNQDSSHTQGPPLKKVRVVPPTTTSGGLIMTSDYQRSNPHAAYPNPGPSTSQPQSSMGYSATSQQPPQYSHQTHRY
T1 sequence (Q15569 whole entry): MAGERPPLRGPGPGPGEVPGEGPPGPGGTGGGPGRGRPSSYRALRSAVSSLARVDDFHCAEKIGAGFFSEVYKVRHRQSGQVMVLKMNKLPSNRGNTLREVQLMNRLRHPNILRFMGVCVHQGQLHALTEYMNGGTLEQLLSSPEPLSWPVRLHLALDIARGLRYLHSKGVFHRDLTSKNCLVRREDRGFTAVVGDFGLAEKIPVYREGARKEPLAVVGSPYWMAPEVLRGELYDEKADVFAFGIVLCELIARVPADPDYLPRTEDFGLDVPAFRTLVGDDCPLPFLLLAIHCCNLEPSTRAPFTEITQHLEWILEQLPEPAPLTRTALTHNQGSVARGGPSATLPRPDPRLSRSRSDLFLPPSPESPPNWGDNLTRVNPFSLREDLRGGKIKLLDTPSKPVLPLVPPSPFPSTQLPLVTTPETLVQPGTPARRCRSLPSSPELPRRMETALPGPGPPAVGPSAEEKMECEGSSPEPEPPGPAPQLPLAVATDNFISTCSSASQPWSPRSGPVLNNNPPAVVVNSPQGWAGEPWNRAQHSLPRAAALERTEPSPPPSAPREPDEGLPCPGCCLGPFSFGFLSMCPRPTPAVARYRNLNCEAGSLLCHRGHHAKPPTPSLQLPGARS
T7 sequence (Q9Y2H1 whole entry): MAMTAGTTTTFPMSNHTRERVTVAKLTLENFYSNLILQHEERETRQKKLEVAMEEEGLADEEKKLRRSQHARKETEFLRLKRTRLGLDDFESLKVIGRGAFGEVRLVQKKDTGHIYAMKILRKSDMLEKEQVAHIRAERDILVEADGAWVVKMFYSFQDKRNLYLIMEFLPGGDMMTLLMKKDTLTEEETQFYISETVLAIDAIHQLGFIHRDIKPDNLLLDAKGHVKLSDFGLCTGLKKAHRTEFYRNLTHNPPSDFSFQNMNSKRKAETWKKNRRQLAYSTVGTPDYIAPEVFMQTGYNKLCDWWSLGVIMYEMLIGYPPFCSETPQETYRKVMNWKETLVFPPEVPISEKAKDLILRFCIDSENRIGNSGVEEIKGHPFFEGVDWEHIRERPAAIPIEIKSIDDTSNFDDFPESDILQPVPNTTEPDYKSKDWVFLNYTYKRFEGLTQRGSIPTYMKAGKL

On to `Cc1sc(C(=O)NC2COC2)cc1-n1cc(NC(=O)Nc2c(F)cccc2Cl)cn1` [Compound 27, 4-(4-(3-(2-chloro-6-fluorophenyl)ureido)-1H-pyrazol-1-yl)-5-methyl-N-(oxetan-3-yl)thiophene-2-carboxamide], for which the remaining activity at 10 µM was 88.7% in assay [1] (10 uM); 110% in assay [2] (10 uM); 102% in [3] (10 uM); 93.2% in assay [4] (10 uM); 92.7% in assay [5] (10 uM); 105% in assay [6] (10 uM). Besides, the remaining activity at 10 µM worked out at 95.1% in [7] (10 uM); 103% in assay [8] (10 uM); 102% in [9] (10 uM); 78.5% in assay [10] (10 uM); 95.2% in assay [11] (10 uM).
On to `O=C(Nc1cnn(-c2csc(C(=O)NC3COC3)c2)c1)Nc1c(F)cccc1Cl` [Compound 25, 4-(4-(3-(2-chloro-6-fluorophenyl)ureido)-1H-pyrazol-1-yl)-N-(oxetan-3-yl)thiophene-2-carboxamide], for which the remaining activity at 5 µM in assay [1] worked out at 91%; in assay [2], 93.7%; in [3], 99.3%; in assay [4] it was 96.3%; in [5] it was 99%; in assay [6] it was 105%. Also, the remaining activity at 5 µM turned out to be 94.8% in [7]; 92.6% in [8]; 90.1% in assay [9]; 82% in [10]; 110% in [11].
In the case of `O=C(Nc1cnn(-c2csc(C(=O)NC3COC3)c2)c1)Nc1ccccc1Cl` [Compound 17, 4-(4-(3-(2-chlorophenyl)ureido)-1H-pyrazol-1-yl)-N-(oxetan-3-yl)thiophene-2-carboxamide], the remaining activity at 5 µM was determined as 101% in assay [1]; 96.7% in assay [2]; 98.2% in [3]; 92.4% in [4]; 101% in assay [5]; 95.4% in assay [6]. In addition, the remaining activity at 5 µM in assay [7] amounted to 103%; in assay [8] it was 102%; in assay [9], 96.4%; in assay [10] it was 124%; in assay [11] it was 102%.
